Literature values as cited in US20240318128A1, “BIOFUNGICIDE PRODUCTION BY CONIOCHAETA AND APPLICATION IN CONTROL OF EARLY BLIGHT OF POTATO” (The United States of America, as represented by the …, priority 2023, published 2024).

Tested on: yeast and bacteria
Conditions: Segeth et al. 2003

coniocetin
spectrum of inhibition: inhibits
